Measurements from patent publication US11154210B2, “Method of determining vasoreactivity using inhaled nitric oxide” (VERO BIOTECH LLC, priority 2011, dated 2021).
Where “and” joins values, the source holds several entries; their conditions need not be identical. Equal values may be shown once.

Tests used:
[1] = test system: patients with pulmonary arterial hypertension; assay: Inhaled nitric oxide vasodilator challenge during right heart catheterization, retrospective review of prostacyclin wean/transition cases; format: in vivo, human
Excerpt: Inhaled nitric oxide (NO) can be administered during right heart catheterization (RHC) to evaluate and characterize pulmonary hemodynamics following long term parenteral prostacyclin therapy and can provide information that may influence the choice of treatment strategies for these patients. These treatment strategies may involve changing vasodilator therapy, eligibility for lung and/or heart transplantation, or changes in prognosis. Inhaled nitric oxide can be a potent, selective pulmonary vasodilator agent and has been well studied up to 80 ppm. It is expected that inhaled nitric oxide as a diagnostic agent during RHC may be useful for facilitating patient management strategies and provide clinical information beneficial to patient care.
An aim of the project was to collect and review the existing data from centers experienced with the practice of transition from parenteral prostacyclins to an alternative therapy. The review was conducted to determine if a population could be characterized based on the hemodynamic response using inhaled nitric oxide during right heart catheterization. A primary objective of the project was to determine the correlation, if any, between the return of pulmonary vascular reactivity following parenteral prostacyclin therapy and the ability of the patient to transition from parenteral prostacyclins to an alternative therapy. Secondary objectives included the exploration of clinical characteristics of a patient population with a documented wean or transition from parenteral prostacyclins, as well as evaluating any change in clinical impression.
To date seven sites have contributed to the data set collected for a total of 47 baseline visits, and 246 follow-up visits. There are five failed weans and seven late failures. Data was available to review for 40 cases entered. No statistical analysis was performed and reviews completed were descriptive in order to identify any shared characteristics in the population either as a success, failure or late failure.
Three cases, where nitric oxide re-challenge data was available at the time of subject wean, are represented in Table 2.
The lack of correlation between the clinical findings and the ECHO data prompted review of the data. Baseline hemodynamics, wean hemodynamics and echocardiography data were reviewed for all the failed transitions. […] In each case, where echocardiography data was available and right ventricular enlargement was indicated and/or right ventricular dysfunction was indicated, a failed wean or late failure was common.

[2] = test system: patients with pulmonary arterial hypertension; conditions: epoprostenol therapy, 27 consecutive patients; cited from earlier work
[3] = test system: patients with pulmonary arterial hypertension; conditions: active group (n=41), 12 weeks; cited from earlier work
[4] = failed wean/late failure cases, Time of Wean

Row | SMILES | acute vasodilator response (fall in PAPm of >10 mm Hg to <40 mm Hg) ([1]; all three cases of Table 2) | change in PAPm ([1]; all three cases of Table 2, nitric oxide challenge at time of wean) | NO CO ([1]; cardiac output on nitric oxide challenge at time of wean, one patient case per table row) | change in CO ([1]; case of the failed transition) | change in PVR ([1]; case of the failed transition) | WN NO CO [1, 4] | WN NO PAPm [1, 4] | WN NO PVR [1, 4] | NO PAPm ([1]; mean pulmonary arterial pressure on nitric oxide challenge at time of wean, one patient case per table row) | NO PVR ([1]; pulmonary vascular resistance on nitric oxide challenge at time of wean, one patient case per table row) | cardiac output increased [2] [%] | mean pulmonary artery pressure declined [2] [%] | pulmonary vascular resistance declined [2] [%] | average decline in mean pulmonary arterial pressure [3] [%] | decline in pulmonary vascular resistance [3] [%]
1 | [N]=O [NO, nitric oxide] | failed to meet the criteria | only a modest decrease | 5.2 and 7.8 and 4.77 | marked increase | minimal decrease | 5.2 | 49 | 8.3 | 49 and 48 and 70 | 8.3 and 3.8 and 14.4 |  |  |  |  | 
2 | CCCCC[C@H](O)/C=C/[C@@H]1[C@H]2C/C(=C/CCCC(=O)O)O[C@H]2C[C@H]1O [epoprostenol] |  |  |  |  |  |  |  |  |  |  | 67 | 22 | 53 | 8 | 21
